We go through 45 molecules from ChEMBL document CHEMBL3988442, “University of Dundee, Small-Polar-MMV Screening Library” (2021).

For assay [1], the target named is AMP-activated protein kinase, AMPK. Kind of assay: AMP-dependent Kinase enzyme assay. An in vitro enzyme assay that detects ADP turnover that is directly proportional to AMPK activity. This uses naive AMPK that is activated during the assay with MK-8722. It counts as functional, Homo sapiens.
Assay [2] relates to Mycobacterium tuberculosis. Kind of assay: Cornell M. t heat shock assay. It counts as functional, organism-based. The following applies: for IC50: Mycobacterium tuberculosis.
The nature of assay [3]: In vitro enzyme assay to detect hydrolysis of chlorophenol red-beta-D-[…] directly proportional to the number of Toxoplasma stably expressing beta-galactosidase. It counts as functional, organism-based, Toxoplasma gondii. The note with it: for IC50: Toxoplasma gondii.
Assay [4] relates to Trypanosoma brucei. Kind of assay: Trypanosoma brucei 72 hour study. It counts as functional, organism-based. The following applies: for IC50: Trypanosoma brucei, 72 h.
The nature of assay [5]: microbe, parasite or virus in culture. The following applies: Mycobacterium tuberculosis, 96 h, read-out: pIC50 (converted).
The nature of assay [6]: microbe, parasite or virus in culture. The following applies: Mycobacterium tuberculosis, 72 h, read-out: pIC50 (converted).
Assay [7] relates to Leishmania donovani. In words: Leishmania intramacrophage assay. The assay is classed as functional, organism-based. The note with it: for IC50: Leishmania donovani.
The target in assay [8] is T1, Histidine--tRNA ligase (Trypanosoma cruzi (strain CL Brener), UniProt Q4DA54).
T1 sequence (Q4DA54 whole entry): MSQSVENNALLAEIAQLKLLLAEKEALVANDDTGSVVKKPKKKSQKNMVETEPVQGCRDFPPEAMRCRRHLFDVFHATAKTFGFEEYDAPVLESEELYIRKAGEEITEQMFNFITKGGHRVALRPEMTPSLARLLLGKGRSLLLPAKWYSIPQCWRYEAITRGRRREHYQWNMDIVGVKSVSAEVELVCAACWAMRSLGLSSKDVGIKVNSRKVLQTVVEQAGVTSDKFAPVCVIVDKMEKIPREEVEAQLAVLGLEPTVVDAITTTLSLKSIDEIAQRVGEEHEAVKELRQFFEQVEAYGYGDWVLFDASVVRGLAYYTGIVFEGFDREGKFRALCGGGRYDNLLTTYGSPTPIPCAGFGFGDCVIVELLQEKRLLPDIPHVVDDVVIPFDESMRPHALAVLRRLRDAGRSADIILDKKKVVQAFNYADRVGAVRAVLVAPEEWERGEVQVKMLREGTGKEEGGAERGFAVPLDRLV
Kind of assay: Trypanosoma cruzi histidyl tRNA synthetase (Tc-HisRS). The assay is classed as functional.

Assay [9] deals with Plasmodium falciparum. In words: Calibr Malaria Delayed Death Assay SOP. The following applies: for IC50: Plasmodium falciparum. It counts as functional, organism-based.
The target of assay [10] is T2, Coenzyme A biosynthesis bifunctional protein CoaBC (Mycobacterium tuberculosis (strain ATCC 25618 / H37Rv), UniProt P9WNZ1).
T2 sequence (P9WNZ1 whole entry): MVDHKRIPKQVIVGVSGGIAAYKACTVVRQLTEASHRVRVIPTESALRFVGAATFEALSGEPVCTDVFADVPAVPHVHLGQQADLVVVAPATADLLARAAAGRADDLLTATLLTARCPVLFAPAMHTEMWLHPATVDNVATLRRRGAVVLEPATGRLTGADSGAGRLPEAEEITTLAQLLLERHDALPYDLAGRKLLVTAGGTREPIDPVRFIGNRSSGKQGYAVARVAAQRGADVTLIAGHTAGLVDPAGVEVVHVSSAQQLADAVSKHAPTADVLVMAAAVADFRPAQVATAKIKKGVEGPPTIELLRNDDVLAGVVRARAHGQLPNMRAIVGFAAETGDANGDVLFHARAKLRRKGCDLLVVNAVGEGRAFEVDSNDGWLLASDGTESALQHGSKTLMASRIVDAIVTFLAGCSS
Kind of assay: Biomol Green assay for MtCoaBC inhibitor, OD650 read. It counts as functional.

Assay [11] concerns the target T3, Histidine--tRNA ligase (Leishmania infantum, UniProt A4I591).
T3 sequence (A4I591 whole entry): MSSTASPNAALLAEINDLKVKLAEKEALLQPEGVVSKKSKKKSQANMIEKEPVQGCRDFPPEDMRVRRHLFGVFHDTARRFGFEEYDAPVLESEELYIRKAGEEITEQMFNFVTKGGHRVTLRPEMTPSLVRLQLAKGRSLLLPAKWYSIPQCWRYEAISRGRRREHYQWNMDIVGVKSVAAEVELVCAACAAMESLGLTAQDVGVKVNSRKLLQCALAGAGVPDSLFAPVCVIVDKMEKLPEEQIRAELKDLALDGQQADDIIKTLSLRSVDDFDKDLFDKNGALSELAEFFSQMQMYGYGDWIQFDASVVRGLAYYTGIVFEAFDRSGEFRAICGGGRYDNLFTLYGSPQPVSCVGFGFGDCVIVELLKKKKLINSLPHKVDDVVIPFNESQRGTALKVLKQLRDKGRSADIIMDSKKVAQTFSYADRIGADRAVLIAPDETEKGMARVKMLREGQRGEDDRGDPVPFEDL
Kind of assay: Leishmania infantum Histidine tRNA synthetase (LdHisRS). It counts as functional.

The target in assay [12] is ClpP1P2 (Mycobacterium tuberculosis (strain ATCC 25618 / H37Rv), UniProt P9WPC3+P9WPC5). Kind of assay: in vitro assay to detect presence of AMC directly proportional to the activity of ClpP1P2. GHDDI collaboration. The assay is classed as functional.
Assay [13] deals with Wolbachia pipientis. Kind of assay: Anti-Wolbachia Cell-Based Screen. The assay is classed as functional.

Each structure is given as a SMILES string. Several values for one entry are separate records, joined by “and”; a condition that tells them apart may be missing. Equal values may be shown once.

Chain of ClpP1P2 (P9WPC5 whole entry): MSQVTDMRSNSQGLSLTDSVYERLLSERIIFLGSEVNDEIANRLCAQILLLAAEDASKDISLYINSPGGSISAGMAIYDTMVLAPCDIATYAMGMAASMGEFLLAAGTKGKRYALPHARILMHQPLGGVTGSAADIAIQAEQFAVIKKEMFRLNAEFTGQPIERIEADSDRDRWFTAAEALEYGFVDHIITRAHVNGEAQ
Chain of ClpP1P2 (P9WPC3 whole entry): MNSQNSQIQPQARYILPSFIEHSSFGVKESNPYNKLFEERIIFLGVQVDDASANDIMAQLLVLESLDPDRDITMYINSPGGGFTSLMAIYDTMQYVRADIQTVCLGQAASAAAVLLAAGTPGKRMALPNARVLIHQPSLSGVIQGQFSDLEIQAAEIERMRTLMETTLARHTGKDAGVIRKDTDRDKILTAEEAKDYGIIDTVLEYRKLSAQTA

The pIC50 is the IC50 on a negative log10 scale, so that one unit is a factor of ten. On to `O=C(NCCNc1ccc(C(F)(F)F)cn1)c1cncc(Br)c1`, for which the pIC50 in assay [1] was 4.385 and < 4.
The same measure, in the same setting: to `Cc1cnn(CC2CN(Cc3nnc(-c4occc4C)o3)CCO2)c1` (centres undefined) belongs under 4; to `CC(C)c1cc(NC(=O)c2cccnc2)[nH]n1`, 4.473 and 4.751; to `Cc1nc(C)n(CC2CCCN(c3ncnc4[nH]ccc34)C2)n1` (centres undefined), 4.827 [middle of 4 runs].
Still for that read-out and setting: to `CCNC(=O)c1nnc2ccc(N3CCOCC3)cc2n1` belongs under 4.
Turning to `Cc1ccc2c(n1)N(C)CCN(C(=O)NC1CC1)C2.O=C(O)C(F)(F)F`, the pIC50 in assay [1] is under 4.
Take `C[C@H]1C[C@@H]2CCN(Cc3ccccn3)C[C@H]2O1`: the pIC50 in [1] is recorded as under 4.
Regarding `CC(C)COc1cncc(N2CCCN(c3ncccn3)CC2)n1`, the pIC50 in [1] is listed as under 4.
Take `CCCc1cc(=O)[nH]c(-n2nc(C3CC3)cc2N)n1`: the IC50 is 6.14 µM in assay [2]; 1.95 µM in assay [3]; 5.23 µM in assay [4]; 23.8 µM in assay [5]; 16.1 µM in assay [6]; 39.6 µM in [7]. For the same molecule, the pIC50 is 5.649 in assay [3]; 5.268 and 5.368 in assay [4]; 4.51 in assay [7].
In the case of `CCn1ncc(-c2cc(C(F)(F)F)nc(N3CCC(N)CC3)n2)c1C`, the IC50 in assay [8] is over 100 µM; in assay [4], 5.74 µM; in assay [5] it was over 50.1 µM; in assay [6] it was over 50.1 µM; in assay [7], 11.9 µM. The pIC50 in assay [3] was 5.222 and 5.563; in assay [4] it was 5.225 and 5.224.
`CO[C@@H]1CC[C@H]2[C@H]1OCCN2C(=O)c1ccc(C)o1` showed a pIC50 in assay [1] of under 4.
The same measure, in the same setting: to `CCOc1cc(C)nc(N2CCN(C(=O)CC)CC2)n1` belongs under 4.
As for `Cc1cc(-c2cnc(NC3CC3)nc2-c2ccoc2)on1`, in assay [1], the pIC50 was under 4.
In turn, `CC(C)OCCCNC(=O)c1ccc(-c2ccco2)[nH]c1=O` came in with a pIC50 in assay [1] of under 4.
Still for that read-out and setting: to `CCOCC(O)CN1CCN(C(=O)C2CC2)CC1` (centres undefined) belongs under 4; to `Cc1cc(-c2cnc(NC3CC3)nc2-c2ccoc2C)on1`, under 4.
On the same count and under the same terms, to `CC(C)c1cc(NC(=O)c2ccc([S+]([O-])C(C)C)cc2)[nH]n1` (centres undefined) belongs 5.533 and 5.17; to `Cl.Cl.c1cncc(OC[C@@H]2CCC[C@@]23CNCCO3)c1`, under 4.
Still for that read-out and setting: to `Cl.Cl.c1cc(COC[C@@H]2CCC[C@@]23CNCCO3)ccn1` belongs under 4; to `COc1cc(-c2cccc3c2OC(CN)C3)ccc1O` (centres undefined), 4.656 and 4.577.
Consider `Cl.NC1CCc2nc(-c3cccnc3)nc(Nc3ccc(F)cc3)c2C1` (centres undefined), for which the pIC50 was 4.893 in assay [2]; 6.698 in [9]; 5.072 and 4.886 in [4]; 5.001 in assay [7]. Also, the IC50 in assay [2] was 6.43 µM; in assay [9], 0.204 µM; in [4] it was 7.84 µM; in [5], 48.6 µM; in assay [6], 22.2 µM; in [7], 8.3 µM.
In [1], `O=C1CN(C(=O)c2cc3ccc(Br)cc3[nH]2)CCN1` returned a pIC50 of under 4.
In the case of `FC1(F)CCN(Cc2cccnc2)CC12CCN(c1ccccc1)C2.O=C(O)C(F)(F)F.O=C(O)C(F)(F)F.O=C(O)C(F)(F)F` (centres undefined), the IC50 in assay [10] is over 30.2 µM; in [9], 1.16 µM; in [4], 6.05 µM; in assay [5] it was 12.5 µM; in [6] it was 43.8 µM; in assay [11], 13.6 µM and 18.6 µM. In addition, the pIC50 in [9] was 5.955; in [4], 5.234 and 5.17.
Consider `Cl.Cl.c1ccc(OC[C@@H]2CCC[C@@]23CNCCO3)nc1`, for which the pIC50 in [1] was under 4.
As for `Cn1ncc2c(NC3CCC3)nc(-c3ccncc3)nc21`, the pIC50 in [1] is on record as under 4.
In [1], `Cc1ccsc1C(=O)N1CC(C(=O)N2CCOCC2)C2(CCOCC2)C1` (centres undefined) showed a pIC50 of under 4.
The same measure, in the same setting: to `CCc1cc(C)c(C(=O)N2CCCC2CC(=O)c2cnn(C)c2)o1` (centres undefined) belongs under 4.
For `CC(C)c1cc(NC(=O)c2ccncc2)[nH]n1`, in assay [1], the pIC50 was 4.474 and 4.692.
Same read-out and setting: to `CCn1cc(NC(=O)NCCN2CCCCCC2=O)cn1` belongs under 4; to `COc1cc(C(=O)N2CCCC(CNS(C)(=O)=O)C2)cc(OC)c1C` (centres undefined), under 4; to `O=C(CN1CC(n2cccn2)C1)NCCc1c[nH]c2ccccc12`, under 4.
Same read-out and setting: to `Cc1ccc(NC(=O)c2cc(S(=O)(=O)N3CCCCC3)c[nH]2)cc1F` belongs under 4.
On to `O=C1CC2(CCN(Cc3ccc(-c4ccccc4)s3)C2)C(=O)N1` (centres undefined), for which the pIC50 in [1] was under 4.
`O=C(NCC1CC1)C1CN(C(=O)c2cccc(Cl)c2)CC12CCOCC2` (centres undefined) had a pIC50 in assay [1] of under 4.
As to `c1cncc(-c2ccc3c(c2)C2(CCNCC2)CC3)c1`, in assay [1], the pIC50 was under 4.
On the same count and under the same terms, to `CN1CCC(c2n[nH]c(=O)n2-c2cccc(Cl)c2)CC1` belongs under 4.
The same measure, in the same setting: to `Cc1ccsc1C(=O)N1CC(C(=O)NCC2CC2)C2(CCOCC2)C1` (centres undefined) belongs under 4.
Consider `NCC1Cc2cccc(-c3ccc(O)c(F)c3)c2O1` (centres undefined), for which, in [1], the pIC50 was 4.898 and 4.913.
On to `CN(C)C(=O)Cc1nc(CN2CCCCC2Cn2cccn2)cs1` (centres undefined), for which, in assay [1], the pIC50 was under 4.
Turning to `Cl.NC1CCc2nc(-c3ccncc3)nc(Nc3cccc(F)c3)c2C1` (centres undefined), the pIC50 in assay [2] is under 4; in [4], 5.636 and 5.623; in assay [7], 5.181. For the same molecule, the IC50 in [2] is 50.4 µM; in [3] it was 3.66 µM; in assay [4] it was 2.41 µM; in [11], 46.3 µM and 51.2 µM; in [7], 5.99 µM.
The molecule `CCCS(=O)(=O)N1CCN(CCCO)CC1` came in with a pIC50 in [1] of under 4.
For `Cc1cc(C)n(CCCn2cncc2-c2ccc3c(c2)CC(C)N3C)n1.Cl` (centres undefined), the IC50 is over 100 µM in assay [12]; 76.7 µM in [2]; over 30.2 µM in [10]; 1.59 µM in assay [9]; 28.9 µM in assay [4]; 23.7 µM and 22.2 µM in [11]. In addition, the pIC50 was 4.037 in assay [2]; 5.88 in assay [9]; 4.689 and 4.712 in [4].
As for `CC(C)c1cc(=O)[nH]c(-n2nc(C3CC3)cc2N)n1`, the IC50 in [2] was 4.63 µM; in assay [4], 2.09 µM; in assay [5], 11.5 µM; in assay [6] it was 12.5 µM; in [7], 40.3 µM. Moreover, the pIC50 in [3] was 6.102 and 5.757; in [4], 5.692 and 5.673; in assay [7], 4.627.
For `CN(C)S(=O)(=O)c1ccc(-c2nc(C#N)c(NC(C)(C)C)o2)o1.Cl`, the IC50 is over 100 µM in [12]; 11.3 µM in assay [2]; 7.65 µM in assay [3]; 18.4 µM in assay [4]; over 50.1 µM in assay [7]. Also, the pIC50 in [4] is 4.737 and 4.726.
Regarding `COc1c(C)cnc(CN(C)C2CCCCC2)c1C`, the pIC50 in assay [3] is 5.219; in assay [4], 5.179 and 5.161; in assay [7] it was 4.733; in [13], 5.441. The IC50 was 4.88 µM in [3], 6.48 µM in assay [4], 13.3 µM in [7] and 6.39 µM in assay [13] (Wolbachia pipientis).
